# Read-outs that look alike come from different tables or passages of the source.
# Key:
# [1] = system: CYP enzymes in rat liver microsomes (RLM); experiment: Inhibition of 20-HETE production in rat liver microsomes (RLM); assay type: biochemical
# Outline: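 Test compounds were dissolved in DMSO, diluted in acetonitrile/DMSO (3:1), and 2 μl was mixed with 100 μl potassium phosphate buffer containing rat liver microsomes in a 96-well plate. Duplicate 30 μl aliquots received 15 μl of 400 μM substrate, were preheated at 37° C. for 10 minutes, then started with 15 μl of 6 mM NADPH for 25 minutes. LC-MS/MS measured 20-HETE formation.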
# [2] = system: diet-induced obesity (DIO) mouse model; experiment: Experiment 1: compound 1, weight loss and blood glucose lowering in DIO mouse model; assay type: in vivo, Male C57BL/6J mice
# Procedure: Experiment 1 was to investigate the effects of compound 1 on weight loss and blood glucose lowering in a diet-induced obesity (DIO) mouse model. Male C57BL/6J mice were purchased from Zhuhai BST Biotechnology Co., Ltd. and housed in a barrier system animal facility. The animals were randomly divided into 3 groups: normal control group, DIO model control group, and DIO model compound 1 treatment group, with 6 animals per group. The treatment group received compound 1 orally at a dose of 100 mg/kg on the first day of high-fat diet (HFD) feeding, once daily for 32 consecutive days. Animal weights were measured weekly, and on day 33, they were fasted overnight but allowed access to water before an oral glucose tolerance test (OGTT).
# [3] = Pharmacokinetic (PK) experiment, oral administration in rats; assay type: in vivo, Male SD rats; conditions: 20 mg/kg; for AUC(0-inf) / Cmax / Tmax / half-life / AUC(0-t): male, SD, rat, plasma; for AUC(0-t): read-out: AUC0-24
# Outline: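 Fasted male SD rats (180-250 g) received 20 mg/kg orally in 30% sulfobutylether-β-cyclodextrin. Tail-vein blood sampled 15 min to 24 h post-dose into K2-EDTA; plasma protein-precipitated with acetonitrile containing internal standard and analysed by LC-MS/MS.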
# [4] = molecular target: recombinant CYP4F2 (rCYP4F2) (Homo sapiens (Human), UniProt P78329); experiment: Inhibition of 20-HETE production by recombinant CYP4F2; assay type: biochemical; conditions: for inhibition at 0.1 µM: read-out: rCYP4F2 (% inh @ 100 nM)
# Sequence of recombinant CYP4F2 (rCYP4F2) (P78329 5-520): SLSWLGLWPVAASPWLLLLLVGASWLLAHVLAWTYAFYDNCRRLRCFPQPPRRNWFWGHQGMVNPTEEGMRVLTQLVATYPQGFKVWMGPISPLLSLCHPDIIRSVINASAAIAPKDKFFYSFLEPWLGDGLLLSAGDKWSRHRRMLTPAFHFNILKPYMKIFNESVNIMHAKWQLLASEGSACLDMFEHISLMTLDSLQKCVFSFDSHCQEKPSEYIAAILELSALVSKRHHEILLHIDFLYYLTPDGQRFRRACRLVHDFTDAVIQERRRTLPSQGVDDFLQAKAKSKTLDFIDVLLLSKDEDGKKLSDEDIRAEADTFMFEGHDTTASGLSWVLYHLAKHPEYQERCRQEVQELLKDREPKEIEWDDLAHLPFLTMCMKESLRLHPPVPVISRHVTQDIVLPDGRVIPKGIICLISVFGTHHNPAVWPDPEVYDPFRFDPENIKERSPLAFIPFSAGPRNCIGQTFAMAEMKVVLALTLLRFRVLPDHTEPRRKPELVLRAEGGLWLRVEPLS
# Procedure: (§1) Experimental principle: The inhibitory activity of 20-HETE production is evaluated by testing the inhibitory effects of the compound on human liver microsomes (HLM), rat liver microsomes (RLM), mouse liver microsomes (MLM), or […] CYP4 subtype enzymes (CYP4F2). This assay employs HLM, RLM, or MLM along with recombinant CYP4F2 (rCYP4F2) and recombinant CYP4A11 (rCYP4A11), which are […] CYP4 subtype enzymes, to detect the effects of the test compound at different concentrations on the metabolic rate of enzyme-specific substrates, to determine the inhibitory effects of the test compound on CYP enzymes in HLM, RLM, or MLM.
# (§2) Experimental methods: Dissolve the test compound in DMSO, and subsequently dilute it with an acetonitrile and DMSO mixture (3:1). Add 2 μl of varying concentrations of the test compound and 100 μl of potassium phosphate buffer containing either liver microsomes or recombinant enzymes to a 96-well plate. After mixing well, transfer 30 μl to another well (in duplicate), add 15 μl of 400 μM substrate solution, and mix well again. Preheat at 37° C. for 10 minutes, and then add 15 μl of 6 mM NADPH and incubate at 37° C. for 25 minutes. After 25 minutes, add 160 μl of acetonitrile solution (containing 0.1 μg/ml internal standard) to stop the reaction. Mix well, centrifuge at 3500 g for 15 minutes, and then analyze the supernatant using LC-MS/MS.
# (§3) Plot the compound concentration on the x-axis and the inhibition rate on the y-axis to draw the curve. Use GraphPad Prism 5 software to fit the curve and calculate the IC50. The formula is Y=Bottom+(Top−Bottom)/(1+10^((Log IC50−X)×HillSlope)). X represents the logarithmic concentration of the inhibitor, and Y represents the relative enzyme activity at a given inhibitor concentration (relative to the condition without the inhibitor).
# (§4) Calculate the inhibition percentages at concentrations of 1000 nM, 500 nM, or 100 nM as well as the half-maximal inhibitory concentration (IC50) of the test compound from the above experiment.
# [5] = system: CYP enzymes in human liver microsomes (HLM); experiment: Inhibition of 20-HETE production in human liver microsomes (HLM); assay type: biochemical
# Outline: (§5)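 Liver microsomes (human or mouse) or recombinant CYP4F2 or CYP4A11 in potassium phosphate buffer mixed with compound, then with 400 μM substrate solution (stock). After 10 min preincubation at 37 °C, reaction started with 6 mM NADPH solution (stock) and run 25 min at 37 °C. 20-HETE formation quantified by LC-MS/MS; IC50 from a four-parameter Hill fit, with percent inhibition also reported at 1000, 500 or 100 nM.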
# [6] = system: CYP enzymes in mouse liver microsomes (MLM); experiment: Inhibition of 20-HETE production in mouse liver microsomes (MLM); assay type: biochemical
# Outline: as §5
# [7] = molecular target: recombinant CYP4A11 (rCYP4A11) (Homo sapiens (Human), UniProt Q02928); experiment: Inhibition of 20-HETE production by recombinant CYP4A11; assay type: biochemical
# Sequence of recombinant CYP4A11 (rCYP4A11) (Q02928 5-519): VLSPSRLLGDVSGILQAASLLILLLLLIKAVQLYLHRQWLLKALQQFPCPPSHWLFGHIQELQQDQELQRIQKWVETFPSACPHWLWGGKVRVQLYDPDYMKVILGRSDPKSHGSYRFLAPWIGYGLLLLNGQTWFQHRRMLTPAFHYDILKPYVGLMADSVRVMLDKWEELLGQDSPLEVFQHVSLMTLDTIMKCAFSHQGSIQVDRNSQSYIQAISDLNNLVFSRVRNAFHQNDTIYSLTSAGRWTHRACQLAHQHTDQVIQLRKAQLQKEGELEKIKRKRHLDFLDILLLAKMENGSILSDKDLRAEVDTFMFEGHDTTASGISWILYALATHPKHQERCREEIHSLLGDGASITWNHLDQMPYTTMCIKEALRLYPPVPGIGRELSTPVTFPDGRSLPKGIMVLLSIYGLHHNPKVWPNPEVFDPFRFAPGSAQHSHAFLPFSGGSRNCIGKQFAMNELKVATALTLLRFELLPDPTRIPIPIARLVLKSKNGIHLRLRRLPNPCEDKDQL
# Procedure: as §1, §2, §3, §4
# [8] = system: diet-induced obesity (DIO) mouse model; experiment: Experiment 2: compound 2 and 4, weight loss and blood glucose lowering in DIO mouse model; assay type: in vivo, Male C57BL/6J mice
# Source text: Experiment 2 was to study the effects of compound 2 and 4 on weight loss and blood glucose lowering in a diet-induced obesity (DIO) mouse model. Male C57BL/6J mice were purchased from Zhuhai BST Biotechnology Co., Ltd. and housed in a barrier system animal facility. Animals were randomly divided into 4 groups: normal control group, DIO model control group, DIO model compound 2 treatment group, and DIO model compound 4 treatment group, with 4-5 animals per group. The model control group and treatment groups were first fed with high-fat diet (HFD) for 9 weeks (day 63), and then the treatment groups were orally administered with compound 2 or compound 4 at a dose of 50 mg/kg once daily for 4 consecutive weeks, while continuing to receive HFD. Animal weights were measured weekly, and on the last day of treatment, they were fasted overnight but allowed access to water before an oral glucose tolerance test (OGTT).
# [9] = system: Cyp4a14−/− mice; conditions: cited from earlier work
# [10] = cited from earlier work
# [11] = system: Cyp4a 14−/− hypertensive mice; conditions: Cyp4a14−/− hypertensive mice; cited from earlier work
# [12] = system: cyclooxygenase and lipoxygenase; conditions: cited from earlier work
# [13] = cited from earlier work; remark: listed apart in the source
# [14] = system: 20-HETE; conditions: read-out: inhibitory activity (inhibitor of 20-HETE); cited from earlier work
# [15] = system: diet-induced obesity (DIO) mouse model; experiment: Experiment 4: weight loss of compound 2 compared with semaglutide in DIO mouse model; assay type: in vivo, Male C57BL/6J mice; conditions: 30 nmol/kg subcutaneously once daily
# Source text: Experiment 4 was to compare the weight loss effects of compound 2 with that of semaglutide in a diet-induced obesity (DIO) mouse model. Male C57BL/6J mice were purchased from Vital River Laboratories (Shanghai) Co., Ltd. and housed in a barrier system animal facility. Animals were randomly divided into 4 groups: normal control group, DIO model control group, compound 2 treatment group, and semaglutide treatment group, with 6 animals per group. The model control group and treatment groups were first fed with high-fat diet (HFD) for 18 weeks, after which the treatment groups were administered with compound 2 or semaglutide, respectively. Compound 2 was administered orally at a dose of 30 mg/kg once daily for 14 consecutive weeks, while semaglutide was administered subcutaneously at a dose of 30 nmol/kg once daily. After 7 weeks of semaglutide treatment, the semaglutide treatment group was switched to compound 2 treatment for another 7 weeks.
# [16] = 50 mg/kg orally once daily for 4 weeks, DIO mice
Compound,IC50 [1] [nM],RLM (% inh @ 500 nM) [1] [%],absorption and blood exposure after oral administration (in words) [3],AUC(0-inf) [3] [ng·h/mL],Cmax [3] [ng/mL],Tmax [3] [h],half-life [3] [min],AUC(0-t) [3] [ng·h/mL],IC50 [4] [nM],inhibition at 0.1 µM [4] [%],HLM (% inh @ 500 nM) [5] [%],IC50 [6] [nM],solubility [10],also measured
"O=C1CCCN1CC1CCN(c2ccc(-c3cn[nH]c3)cc2)CC1 [Compound 1, 1-((1-(4-(1H-pyrazol-4-yl)phenyl)piperidin-4-yl)methyl)pyrrolidin-2-one]",224,54.99,well absorbed and exhibit high blood exposure,125000,9980,1.5,434,113000,24,59.5,79.83,1220,,"body weight ([2]; 100 mg/kg orally once daily for 32 days from first day of HFD): stabilized around the initial weight after 1 week and remained stable thereafter; fasting blood glucose ([2]; 100 mg/kg orally once daily for 32 days, DIO mice): inhibit the increase in fasting blood glucose; glucose metabolism (OGTT) ([2]; 100 mg/kg orally once daily for 32 days, OGTT day 33): enhance glucose metabolism; inhibition at 0.1 µM ([7]; read-out: rCYP4A11 (% inh @ 100 nM)): 35.4%"
"O=C1CCCN1CC1CCN(c2ccc(-c3cn[nH]c3)c(F)c2F)CC1 [Compound 4, 1-((1-(2,3-difluoro-4-(1H-pyrazol-4-yl)phenyl)piperidin-4-yl)methyl)pyrrolidin-2-one]",89.5,72.00,well absorbed and exhibit high blood exposure,59000,7260,1.33,234,58100,18.8,61.7,85.53,1350,,"fasting blood glucose [8, 16]: inhibit the increase in fasting blood glucose; glucose metabolism (OGTT) [8, 16]: enhance glucose metabolism; body weight decrease, of the pre-administration weight ([8]; 50 mg/kg orally once daily, first week of administration, after 9 weeks HFD): 12%-16%; IC50 [5]: 25.8 nM; IC50 [7]: 53.7 nM"
COCCOCCOCCOCCOCCOCCOC(=O)CCCC/C=C\CCCCCCC/C=C\CCCCO [Compound 20-SOLA],,,,,,,,,,,,,more water-soluble,hyperglycemia and hyperinsulinemia [9]: improve hyperglycemia and hyperinsulinemia; weight gain induced by a high-fat diet [9]: reduce the weight gain; blood pressure [11]: restore blood pressure to normal
CCCCc1ccc(N=CNO)c(C)c1 [HET0016],,,,,,,,,,,,,poor,effect on the activity of cyclooxygenase and lipoxygenase [12]: no effect; half-life [13]: short; IC50 [14]: 8.9 nM
semaglutide [reference compound],,,,,,,,,,,,,,"maximum weight-loss effect, decrease compared to the pre-treatment weight ([15]; after 2 weeks): approximately 20%; food intake, fraction of the model control group ([15]; first 2 weeks): ⅓ to ½"

# Source: patent US20250034116A1, “1,4-DIHETEROCYCLIC SUBSTITUTED AROMATIC RING OR AROMATIC HETEROCYCLIC COMPOUND AND USE THEREOF” (BeBetter Med Inc., priority 2022, published 2025)
